Patent US8933039B2 (NPS Pharmaceuticals, Inc., priority 1995, dated 2015)
Non-standard residues stand in square brackets, D forms with d. Residues, ends and D or L forms follow the SMILES beside them.

Columns and labels:
Fisher 334 DPP-IV-rats = assay: Small bowel weight in DPP-IV deficient Fisher rats; assay type: in vivo; details: 20 μg b.i.d. s.c. in PBS, vs vehicle
Procedure: (§1) The following experiments were conducted to confirm that the increase in bowel weight seen in experimental animals treated with DPP-IV resistant analogs of GLP-2, compared with animals treated with wild-type GLP-2, was attributable in part to the DPP-IV resistant nature of the molecules. This experiment took advantage of the availability of a DPP-IV deficient rat strain, Fisher 334 DPP-IV-rats. The effect of rGLP-2 injections on small bowel weight in the Fisher DPP-IV deficient rats was compared to that in normal Sprague-Dawley rats.
(§2) In the following experiments the Sprague-Dawley rats were injected s.c. twice daily with rGLP-2 in the Gelatin formulation. The Fisher rats were injected s.c. twice daily with GLP-2 peptides (both rGLP-2, and rGLP-2 analogs) in PBS.

CD1 mice = assay: Intestinotrophic activity assessment: small bowel weight in mice; assay type: in vivo; details: for % Increase in small bowel weight: CD1 mice, 2.5 μg peptide s.c. b.i.d. in PBS, sacrificed 10 or 14 days, relative to vehicle only; for intestinotrophic activity compared with the naturally occurring molecule / rGLP-2 (in words): comment on Table 1, CD1 mice; for % Activity (small bowel inducing activity relative to native rat GLP-2(1-33) = 100%): mice, as Example 4
Outline: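 Female CD1 mice, 6 weeks old (n=3-4/group), given 2.5 μg peptide s.c. b.i.d. in PBS; sacrificed 10 or 14 days later after ≥20 h fast. Small bowel (pylorus to cecum) weighed; percent change versus vehicle mice, also expressed relative to rat GLP-2(1-33) set as 100%.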

human placental DPP-IV = human placental DPP-IV (Homo sapiens, UniProt P27487); assay: Assay for resistance to dipeptidyl peptidase IV (RP-HPLC of cleavage product); details: human placental DPP-IV 0.125 mU, peptide 0.2 mg/ml, PBS pH 7.4, 37° C.
Chain of human placental DPP-IV (P27487 whole entry): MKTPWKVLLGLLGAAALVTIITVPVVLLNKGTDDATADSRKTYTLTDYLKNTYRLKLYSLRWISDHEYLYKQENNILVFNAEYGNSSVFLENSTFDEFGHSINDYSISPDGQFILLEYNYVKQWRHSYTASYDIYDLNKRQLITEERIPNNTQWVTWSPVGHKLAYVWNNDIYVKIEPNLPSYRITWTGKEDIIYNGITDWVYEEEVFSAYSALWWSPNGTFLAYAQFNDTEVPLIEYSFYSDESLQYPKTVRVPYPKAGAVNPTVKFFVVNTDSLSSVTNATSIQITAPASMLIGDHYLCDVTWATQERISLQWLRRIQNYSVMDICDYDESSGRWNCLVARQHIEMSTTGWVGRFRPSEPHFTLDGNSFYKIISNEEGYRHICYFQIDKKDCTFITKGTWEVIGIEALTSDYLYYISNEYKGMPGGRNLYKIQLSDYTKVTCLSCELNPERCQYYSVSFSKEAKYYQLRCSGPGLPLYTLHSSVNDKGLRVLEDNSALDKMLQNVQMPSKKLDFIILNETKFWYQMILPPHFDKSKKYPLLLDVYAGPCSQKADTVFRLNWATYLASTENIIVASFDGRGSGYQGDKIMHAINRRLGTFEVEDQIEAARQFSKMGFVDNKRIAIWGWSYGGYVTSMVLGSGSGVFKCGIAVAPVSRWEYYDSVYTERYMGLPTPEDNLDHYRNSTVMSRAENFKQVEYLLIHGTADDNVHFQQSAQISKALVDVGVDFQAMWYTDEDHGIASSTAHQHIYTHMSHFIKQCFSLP
Procedure: (§3) The mixture was incubated at 37° C. in a circulating water bath for 24 hours. The incubation was quenched by the addition of 50 μl of a solution of diprotin A prepared at a concentration of 4 mg/ml in PBS. Each peptide was tested in duplicate.
(§4) Each sample was analyzed by reverse-phase (RP) HPLC as follows: 90 μl of the quenched incubation mixture was injected onto a Rainin Dynamax 300 Å, C18, 5 micron, 4.6×250 millimeter column. The samples were eluted with 0.1% trifluoroacetic acid (TFA) in water modified with 0.1% acetonitrile using a linear gradient and a flow rate of 1 ml per minute. Sample components were detected at 214 nanometers (nm). The extent of cleavage was measured by relative integration of the peak corresponding to the cleavage product compared to that of the remaining undigested parent peptide.

DPP-IV [1] = target: T1, DPP-IV (Homo sapiens, UniProt P27487); assay: as above; details: human, isolated human placental DPP-IV (dipeptidyl peptidase IV)
T1 sequence (P27487 whole entry): as above
Procedure: as §3, §4

[2] = test system: Fisher 344 wild-type rats; assay: Small bowel weight in Fisher 344 wild-type rats; assay type: in vivo; details: 20 μg b.i.d. s.c. in PBS, over vehicle control
Procedure: as §2

Sprague-Dawley rats = assay: Small bowel weight in normal Sprague-Dawley rats; assay type: in vivo; details: gelatin formulation, vs vehicle
Procedure: as §1, §2

DPP-IV [3] = target: T1, DPP-IV; assay: in vitro; details: isolated enzyme dpp iv, pH 7.4, % Cleaved by DPP-IV
Procedure: as §3, §4

[4] = pH 7.4, % Cleaved by DPP-IV, as Example 3: human placental DPP-IV, 37° C., PBS pH 7.4

| cleaved by DPP-IV after the 24 hour incubation (human placental DPP-IV) | metabolised at 24 h, 0.19 mg/ml (DPP-IV [1]; [4]) [%] | metabolised at 24 h, 0.19 mg/ml (DPP-IV [1]; pH 7.4, cleaved by DPP-IV after the 24 hour incubation, human placental DPP-IV 0.125 mU, peptide 0.2 mg/ml, PBS pH 7.4, 37° C.) [%] | metabolised at 24 h, 0.19 mg/ml (DPP-IV [3]) [%] | Compound | increase in % change in small bowel weight (Fisher 334 DPP-IV-rats) | % Increase in small bowel weight (CD1 mice) [%] | intestinotrophic activity compared with the naturally occurring molecule / rGLP-2 (in words) (CD1 mice) | % Activity (small bowel inducing activity relative to native rat GLP-2(1-33) = 100%) (CD1 mice) [%] | increase in small bowel weight [2] | % change in small bowel weight (Sprague-Dawley rats; 2.5 μg b.i.d. s.c.) | % change in small bowel weight (Sprague-Dawley rats; 25 μg b.i.d. s.c.) |
| --- | --- | --- | --- | --- | --- | --- | --- | --- | --- | --- | --- |
| No cleavage products were detected | 0 | – | – | H-HGDGSFSDEMNTILDNLATRDFINWLIQTKITD-OH [[Gly2]ratGLP-2(1-33)] | 50-60% | 70 | greatly enhanced | 196 | 75-85% | – | – |
| – | 58 | 22 | – | H-HADGSFSDEMNTILDNLATRDFINWLIQTKITD-OH [ratGLP-2(1-33), reference compound] | 40-50% | 45 | – | 100 | – | no % change | no % change |
| No cleavage products were detected | 0 | – | – | CC[C@H](C)[C@H](NC(=O)[C@H](Cc1ccccc1)NC(=O)[C@H](CC(=O)O)NC(=O)[C@H](CCCNC(=N)N)NC(=O)[C@@H](NC(=O)[C@H](C)NC(=O)[C@H](CC(C)C)NC(=O)[C@H](CC(N)=O)NC(=O)[C@H](CC(=O)O)NC(=O)[C@H](CC(C)C)NC(=O)[C@@H](NC(=O)[C@@H](NC(=O)[C@H](CC(N)=O)NC(=O)[C@H](CCSC)NC(=O)[C@H](CCC(=O)O)NC(=O)[C@H](CC(=O)O)NC(=O)[C@H](CO)NC(=O)[C@H](Cc1ccccc1)NC(=O)[C@H](CO)NC(=O)CNC(=O)[C@H](CC(=O)O)NC(=O)[C@@H](C)NC(=O)[C@@H](N)Cc1c[nH]cn1)[C@@H](C)O)[C@@H](C)CC)[C@@H](C)O)C(=O)N[C@@H](CC(N)=O)C(=O)N[C@@H](Cc1c[nH]c2ccccc12)C(=O)N[C@@H](CC(C)C)C(=O)N[C@H](C(=O)N[C@@H](CCC(N)=O)C(=O)N[C@H](C(=O)N[C@@H](CCCCN)C(=O)N[C@H](C(=O)N[C@H](C(=O)N[C@@H](CC(=O)O)C(=O)O)[C@@H](C)O)[C@@H](C)CC)[C@@H](C)O)[C@@H](C)CC [[DAla2]ratGLP-2(1-33)] (H-H[dA]DGSFSDEMNTILDNLATRDFINWLIQTKITD-OH) | – | 86 | – | 210 | – | – | – |
| – | – | – | 0 | CC[C@H](C)[C@H](NC(=O)[C@H](Cc1ccccc1)NC(=O)[C@H](CC(=O)O)NC(=O)[C@H](CCCNC(=N)N)NC(=O)[C@H](C)NC(=O)[C@H](C)NC(=O)[C@H](CC(C)C)NC(=O)[C@H](CC(N)=O)NC(=O)[C@H](CC(=O)O)NC(=O)[C@H](CC(C)C)NC(=O)[C@@H](NC(=O)[C@@H](NC(=O)[C@H](CC(N)=O)NC(=O)[C@H](CCSC)NC(=O)[C@H](CCC(=O)O)NC(=O)[C@H](CC(=O)O)NC(=O)[C@H](CO)NC(=O)[C@H](Cc1ccccc1)NC(=O)[C@H](CO)NC(=O)CNC(=O)[C@H](CC(=O)O)NC(=O)CNC(=O)[C@@H](N)Cc1c[nH]cn1)[C@@H](C)O)[C@@H](C)CC)C(=O)N[C@@H](CC(N)=O)C(=O)N[C@@H](Cc1c[nH]c2ccccc12)C(=O)N[C@@H](CC(C)C)C(=O)N[C@H](C(=O)N[C@@H](CCC(N)=O)C(=O)N[C@H](C(=O)N[C@@H](CCCCN)C(=O)N[C@H](C(=O)N[C@H](C(=O)N[C@@H](CC(=O)O)C(=O)O)[C@@H](C)O)[C@@H](C)CC)[C@@H](C)O)[C@@H](C)CC [[Gly2]hGLP-2(1-33)] | – | 59 | substantially increased | 300 | – | – | – |
